Assay results from paper PMC1082716, “Blockade of chemokine-induced signalling inhibits CCR5-dependent HIV infection in vitro without blocking gp120/CCR5 interaction” (Retrovirology, 2005).
Entries after “also recorded” stand apart in the source; their conditions may differ.

Tests used:
[1] = tested on: CCR5; test: Specific binding of biotinylated gp120:V3(BaL) peptide to THP-1 cells; settings: 100 μM biotinylated gp120:V3(BaL); various concentrations of Peptide 3; 10^6 cells in 100 μl, 4°C; non-specific binding (10 mM unlabelled peptide) subtracted
Method: The binding of gp120 to chemokine receptors is likely to involve sequences in the V3 loop of gp120 [28, 20]. We therefore synthesised peptide sequences from the V3 loop of the M-tropic BaL strain and the T-tropic IIIb strain and analysed the binding of these biotinylated peptides to the THP-1 and Jurkat cells. Specific (competable) binding of gp120:V3(BaL) to THP-1 cells was detected at 100 μM (Fig 1a). In contrast, specific binding of gp120:V3(BaL) to Jurkat cells was not detected even at concentrations up to 500 μM (Fig 1a). […]
Figure 1 Specific binding of gp120:V3 loop peptides to THP-1 and Jurkat cells. […] Specific binding is expressed as the absorbance in the absence of unlabelled peptide minus the absorbance in the presence of competitor (b) Binding of gp120:V3(IIIb)-biotin under the same conditions as in (a). […]
Cells (either Jurkat T-cells or THP-1 cells) were grown in RPMI 1640 medium supplemented with 10% fetal calf serum, 2 mM glutamine, 20 μM β-mercaptoethanol, 100 U/ml penicillin and 100 μg/ml streptomycin and maintained between 2 × 10^5 and 1 × 10^6 cells/ml. […] The plate was spun (3,000 × g; 3 mins) and 200 μl of the coloured product was transferred to an empty 96-well ELISA plate and the absorbance at 450 nm determined.

[2] = tested on: HIV strain MN; test: HIV (MN) infection of THP-1 cells, p24gag immunofluorescence; assay type: cell-based, HIV-1; settings: Peptide 3 100 μM
Method: However, it was possible to assess HIV infectivity of THP-1 cells using high sensitivity immunofluorescent detection of p24^gag. THP-1 cells were differentiated with hydrocortisone and PMA, then treated with TNFα, resulting in adherent monolayers on glass chamber slides. The THP-1 cells were then treated with either Peptide 3 (100 μM), MIP1α (100 ng/ml) or SDF1α (100 ng/ml) as for the Jurkat cells. THP-1 cells were infected with HIV strain MN at a concentration previously validated to produce easily detectable infection and grown for 72 h prior to fixation and staining for p24^gag. In contrast to the findings with HIV strain IIIb infection of Jurkat T cells, Peptide 3 inhibited infection of THP-1 cells by more than 80% (Fig 3c), very similar to the effect of MIP1α.
THP-1 cells were differentiated prior to infection with hydrocortisone and PMA in 8-well chamber slides. Sixteen hours prior to infection, TNFα was added (100 ng/ml). Twelve hours later, the medium was aspirated and replaced with fresh medium containing the test peptides or chemokines as appropriate. After a further four hours, virus from the frozen stocks was adeed to the cells, which were the processed for immunofluoresence between 28 h and 72 h after infection.
Jurkat cells following HIV infection were attached to 8-well chamber slides (Becton-Dickinson) by spinning the slides using a plate rotor in a Labofuge centrifuge (Heraeus) at 3,000 × g for 5 minutes. Attached Jurkat cells or THP-1 cells were then fixed by dipping the slides into ice-cold 70% ethanol for 90 seconds. Non-specific binding was blocked by incubation with 3% fatty acid-free BSA in TBS for 1 hour at room temprature. Cells were incubated with the mouse monoclonal anti-HIV-1 p24^gag antibody EH12E1 (ref 38;AIDS Reagent Program, NIBSC) at 10 μg/ml in 3% BSA in TBS at room temperature overnight. Unbound antibody was removed with 3 × 3 min washes in PBS, and bound antibody was then fixed to the slide by incubation with 3.8% phosphate buffered formalin pH7.2 for 10 mins at room temperature, followed by 3 further 3 min washes in PBS. Bound antibody was visualised using donkey anti-mouse IgG FITC conjugate (715-095-150; Jackson Immunoresearch) at 30 μg/ml in 3% BSA/TBS + 1 ng/ml Hoescht 33342 for 6 hours at room temperature. Twelve fields of view (100× magnification) were captured from each well of the chamber slide using an Olympus Provis AX electronic microscope connected to a Power Macintosh 8500, running OpenLab image analysis software (Improvision), under both FITC illumination conditions (NIBA filter block; λex = 470–490 nm, dichroic mirror = 505 nm, λem = 515–550 nm) and UV illumination conditions (Chroma 31000; λex = 340–380 nm, dichroic mirror = 400 nm, λem = 435–485 nm). Images were acquired with a Hamamatsu C4742-05 monochrome digital camera with 10-bit depth in a 1280-1024 pixel field connected to a DIG Snapper frame grabber. The exposure time, amplifier gain and offset values were controlled by the OpenLab software and were held constant throughout the experiment. A background (an image captured without a slide under the objective) was digitally subtracted from every image. A threshold was then applied to each image which was the lowest threhold that detected <1% of the pixels of an image of uninfected cells stained under identical conditions. The number of objects exceeding this threshold in each field of view were counted. […]

EICADPKQKWVQ [Peptide 3]
Effect on gp120 binding to CCR5 (gp120:V3(BaL) to THP-1 cells) [1]: no effect; also recorded: unaffected | Effect on HIV infection of THP-1 cells (in words) ([2]; HIV strain MN, MIP1α 100 ng/ml, SDF1α 100 ng/ml, 72 h, p24gag immunofluorescence): powerfully inhibited; also recorded: blocked | Inhibition of infection of THP-1 cells (p24gag) ([2]; HIV strain MN, differentiated THP-1 (hydrocortisone, PMA, TNFα), grown for 72 h prior to fixation, 12 fields of view): more than 80% | Inhibition of CCR5 mediated HIV infection of THP-1 cells ([2]; assayed by immunofluoresence staining, HIV MN, 72 h, p24gag): 83 ± 7%
